Reference: patent publication US20240076394A1, “MODULATING THE IMMUNE RESPONSE USING ANTI-CD30 ANTIBODY-DRUG CONJUGATES” (Seagen Inc., priority 2020, published 2024)
“Also recorded” adds a separate entry of the source.

B1: SGN-CD30C: antibody-drug conjugate of Formula (IC): L is anti-CD30 antibody brentuximab, y is 1, z is 8, p is 8 (conjugate)
VH: QIQLQQSGPEVVKPGASVKISCKASGYTFTDYYITWVKQKPGQGLEWIGWIYPGSGNTKYNEKFKGKATLTVDTSSSTAFMQLSSLTSEDTAVYFCANYGNYWFAYWGQGTQVTVSA
VL: DIVLTQSPASLAVSLGQRATISCKASQSVDFDGDSYMNWYQQKPGQPPKVLIYAASNLESGIPARFSGSGSGTDFTLNIHPVEEEDAATYYCQQSNEDPWTFGGGTKLEIK

Legend:
[1] = system: xenograft models of Hodgkin disease; conditions: SCID mouse xenograft models of Hodgkin disease; cited from earlier work
[2] = system: CD30+ cell lines; conditions: in vitro; cited from earlier work
[3] = system: CD4+CD127lowCD25+ peripheral blood Tregs (CD30+); test: In vitro depletion of CD30+ peripheral blood T regulatory cells (flow cytometry live cell counts); format: cell-based, human; conditions: peripheral blood Tregs from 2 normal donors, CD3/CD28 beads 1:4 and 10 ng/ml IL-2, 4-5 days, titration of ADC; compared to non-binding control ADC hIgG-7782; FIG. 1B
Experimental: Cryopreserved inducible Tregs from 5 normal donors and CD4^+CD127^lowCD25^+ peripheral blood Tregs from 2 normal donors (Cellero and Stem Cell Technologies) were washed and resuspended in RPMI 1640 media containing 10% FBS and put into culture with CD3/CD28 beads at a 1:4 bead:cell ratio and 10 ng/ml IL-2 for 4-5 days in a 96-well round bottom plate at 37° C. and 5% CO2 in a titration of cAC10-7782 or non-specific control hIgG-7782. At the end of the incubation, cells were washed and stained with a Zombie Aqua viability dye and CD30 PE (Biolegend), and both total and CD30^+ live cell counts were determined using an Attune Nxt Flow cytometer. Untreated inducible Tregs were 37-80% CD30^+ and peripheral Tregs were 33-68% CD30^+ at the conclusion of the assay.
Cell counts are shown as the percent of untreated control.

[4] = system: CD30+ inducible T regulatory cells (iTregs); test: In vitro depletion of CD30+ inducible T regulatory cells (flow cytometry live cell counts); format: cell-based, human; conditions: iTregs from normal donors, CD3/CD28 beads 1:4 and 10 ng/ml IL-2, 4-5 days, titration of ADC; compared to non-binding control ADC hIgG-7782; FIG. 1A
Experimental: The ability of the anti-CD30 antibody-drug conjugate SGN-CD30C to deplete CD30+T regulatory (Tregs) was assessed in vitro. Inducible T regulatory cells (iTregs) were differentiated from cryopreserved CD4^+ T cells of two normal donors (Cellero, Bothell, Washington, Cat #1023) in X-Vivo 15 media (Lonza, Cat #04-418Q) supplemented with 50 ng/ml TGFβ1 (R&D, cat #100-B), 50 ng/ml IL-2 (R&D, Cat #202-IL/CF) and a 1:100 dilution of Lipid Mixture 1 (Sigma, Cat #L0288-100 ml) with CD3/CD28 beads (Miltenyi, Cat #130-095-345) at a 1:20 bead:cell ratio for 6 days at 37° C. and 5% CO2, followed by 2 days resting in X-Vivo 15 media only. Differentiated iTregs were then immunophenotyped prior to in vitro cytotoxicity assays with a viability dye and fluorescently labeled anti-human CD3, CD4, CD8, CD25 and Foxp3 (Biolegend and BD Pharmingen), and analyzed on an Attune NxT Flow Cytometer (Life Technologies). Following differentiation, the iTreg populations were 38% and 53% CD25^+FoxP3^+. Inducible Tregs from 3 additional normal donors were also ordered directly from Cellero (Cat #1042). […]

Molecule | antitumor activity [1] | growth arrest of CD30+ cell lines [2] | peripheral blood CD30+ Treg count (percent of untreated control) [3] | total CD30+ iTreg count (percent of untreated control) [4]
cAC10: chimeric IgG1 monoclonal antibody that specifically binds CD30 | pronounced antitumor activity | induces growth arrest |  | 
B1 |  |  | depleted; also recorded: dose-dependent reduction | depleted; also recorded: dose-dependent reduction
